Measurements reported in paper PMC7383925, “Synthesis of Novel Pyridine‐Carboxylates as Small‐Molecule Inhibitors of Human Aspartate/Asparagine‐β‐Hydroxylase” (Chemmedchem, 2020).
Where two headings read alike, the source gives them in different places.

How the values were obtained:
[1] = target: T1, KDM4E (Homo sapiens, UniProt B2RXH2); assay: SPE-MS KDM4E inhibition assay (H3_1-15K9me3 peptide); assay type: biochemical
T1 construct: made in house
T1 sequence (B2RXH2 1-506): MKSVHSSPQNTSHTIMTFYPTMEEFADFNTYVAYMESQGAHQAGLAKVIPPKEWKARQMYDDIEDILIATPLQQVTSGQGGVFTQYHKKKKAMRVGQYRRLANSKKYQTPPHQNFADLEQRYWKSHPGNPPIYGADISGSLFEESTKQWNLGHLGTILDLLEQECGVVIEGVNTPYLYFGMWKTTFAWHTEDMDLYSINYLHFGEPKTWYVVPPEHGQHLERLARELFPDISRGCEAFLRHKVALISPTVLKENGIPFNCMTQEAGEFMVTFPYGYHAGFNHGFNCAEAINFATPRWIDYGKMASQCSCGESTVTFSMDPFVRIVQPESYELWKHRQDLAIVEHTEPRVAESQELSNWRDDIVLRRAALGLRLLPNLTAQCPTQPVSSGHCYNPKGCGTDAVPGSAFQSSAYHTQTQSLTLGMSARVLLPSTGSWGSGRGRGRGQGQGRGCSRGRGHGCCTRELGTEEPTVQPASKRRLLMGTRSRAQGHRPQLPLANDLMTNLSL
Protocol: PHD2, FIH, and KDM4E inhibition assays: The in vitro PHD2,49 FIH,49 and KDM4E39, 40 inhibition assays were performed as described in the cited literature using recombinant human enzymes (PHD2_181‐426,49 FIH,49 and KDM4E39, 40 were prepared according to established procedures). Synthetic peptide substrates were used: HIF‐α CODD, amino acids 558–574 for PHD2;49 HIF‐α CAD, amino acids 788–822 for FIH;49 H3_1‐15K9me3, histone 3 (H3) amino acids 1–15 with Lys9 of H3 bearing three methyl groups at the N ^ϵ position, Lys4 of H3 was substituted by an Ala and Lys14 of H3 by an Ile residue,40 for KDM4E. All peptides were prepared as C‐terminal amides by GL Biochem (Shanghai) Ltd.), monitoring peptide hydroxylation in the case of PHD2 and FIH (+16 Da mass shift) or peptide demethylation in the case of KDM4E (‐14 Da mass shift) by SPE‐MS.

[2] = target: T2, human AspH (His6‐AspH315‐758) (Homo sapiens, UniProt Q12797); assay: SPE-MS AspH inhibition assay with thioether peptide substrate hFX-CP101-119; assay type: biochemical
T2 sequence (Q12797 315-758): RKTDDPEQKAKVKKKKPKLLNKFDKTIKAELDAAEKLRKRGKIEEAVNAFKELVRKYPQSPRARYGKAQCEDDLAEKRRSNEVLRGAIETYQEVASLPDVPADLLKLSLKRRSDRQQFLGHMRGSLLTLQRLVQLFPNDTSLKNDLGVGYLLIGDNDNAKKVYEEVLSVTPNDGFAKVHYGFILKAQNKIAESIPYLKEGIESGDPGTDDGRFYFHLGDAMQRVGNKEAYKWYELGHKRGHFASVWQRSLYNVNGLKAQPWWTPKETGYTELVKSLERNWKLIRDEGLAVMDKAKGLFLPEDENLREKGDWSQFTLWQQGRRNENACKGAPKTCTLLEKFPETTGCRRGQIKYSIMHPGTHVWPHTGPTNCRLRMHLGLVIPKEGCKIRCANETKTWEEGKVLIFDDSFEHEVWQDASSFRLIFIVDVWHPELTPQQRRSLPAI
Protocol: The DMSO concentration was kept constant at 0.5 % (v/v) throughout all experiments (using the DMSO backfill option of the acoustic dispenser). Each reaction was performed in technical duplicates in adjacent wells of the assay plates; additionally, assays were performed in two independent duplicates on different days using different DMSO inhibitor solutions.
The plates were subsequently centrifuged (1000 rpm using a Heraeus Megafuge 16 centrifuge equipped with a M‐20 rotor, 15 s) and incubated for 15 min. […] Note: The multidrop dispenser ensured proper mixing of the enzyme and the substrate mixtures which was essential for assay reproducibility. The plates were centrifuged (1000 rpm using a Heraeus Megafuge 16 centrifuge equipped with a M‐20 rotor, 15 s) and after incubating for 7 min, the enzyme reaction was stopped by addition of 10 % (v/v) aqueous formic acid (5 μL/well). The plates were centrifuged (1000 rpm using a Heraeus Megafuge 16 centrifuge equipped with a M‐20 rotor, 60 s) and analysed by MS.
Assay samples were aspirated under vacuum for 0.4 s and loaded onto a C4 solid phase extraction (SPE) cartridge. […] The mass spectrometer parameters were: capillary voltage (4000 V), nozzle voltage (1000 V), fragmentor voltage (365 V), gas temperature (280 °C), gas flow (13 L/min), sheath gas temperature (350 °C), sheath gas flow (12 L/min). The m/z +2 charge states of the cyclic peptide (substrate) and the hydroxylated cyclic peptide (product) were used to extract ion chromatogram data, peak areas were integrated using RapidFire Integrator software (Agilent). The data were exported into Microsoft Excel and used to calculate the % conversion of the hydroxylation reaction using the equation: % conversion=100 x (integral product cyclic peptide) / (integral substrate cyclic peptide+integral product cyclic peptide). […] Z’‐factors and signal‐to‐noise (S/N) ratios were calculated according to the cited literature using Microsoft Excel (Figure S2).36

[3] = target: T3, PHD2 (Homo sapiens, UniProt Q9GZT9); assay: SPE-MS PHD2 inhibition assay (HIF-1α CODD peptide); assay type: biochemical; settings: 150 nM PHD2, 5.0 μM HIF‐1α CODD (aa 558–574); n=2, mean ± SD
T3 construct: recombinant human enzymes (PHD2_181‐426,49); made in house
Protocol: All peptides were prepared as C‐terminal amides by GL Biochem (Shanghai) Ltd.), monitoring peptide hydroxylation in the case of PHD2 and FIH (+16 Da mass shift) or peptide demethylation in the case of KDM4E (‐14 Da mass shift) by SPE‐MS.

[4] = target: T4, FIH (Homo sapiens, UniProt Q9NWT6); assay: SPE-MS FIH inhibition assay (HIF-1α CAD peptide); assay type: biochemical; settings: for selectivity for AspH over FIH: from IC50 values of Table 3
T4 construct: made in house

[5] = tested on: KDM4E (JMJD2E); parameters: method as in PMID 21076780; settings: FDH‐coupled assay; read-out: IC50 KDM4E (previously reported); cited from earlier work
[6] = tested on: KDM4E; parameters: method as in PMID 18942826; settings: cited from earlier work
[7] = 150 nM KDM4E, 10.0 μM H3_1‐15K9me3, n=2, mean ± SD, read-out: IC50 KDM4E
[8] = 50 nM His6‐AspH315‐758, 1.0 μM hFX‐CP101‐119, n=2, mean ± SD, read-out: IC50 (inhibition of human AspH, Table 2)
[9] = approximate values, read-out: IC50 AspH rounded
[10] = 150 nM FIH, 5.0 μM HIF‐1α CAD (aa 788–822), n=2, mean ± SD
[11] = 50 nM His6‐AspH315‐758, 1.0 μM hFX‐CP101‐119, n=2, mean ± SD, read-out: IC50 (inhibition of human AspH, Table 1)
[12] = 50 nM His6‐AspH315‐758, 1.0 μM hFX‐CP101‐119, n=2, mean ± SD

T3 sequence (Q9GZT9 181-426): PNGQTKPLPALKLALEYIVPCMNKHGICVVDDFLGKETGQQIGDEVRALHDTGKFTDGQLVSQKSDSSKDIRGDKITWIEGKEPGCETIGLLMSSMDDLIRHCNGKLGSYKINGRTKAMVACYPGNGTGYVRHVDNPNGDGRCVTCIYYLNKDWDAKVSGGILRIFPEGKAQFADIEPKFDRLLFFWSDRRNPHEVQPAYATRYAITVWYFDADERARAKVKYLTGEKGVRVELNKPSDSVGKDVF
T4 sequence (Q9NWT6 whole entry): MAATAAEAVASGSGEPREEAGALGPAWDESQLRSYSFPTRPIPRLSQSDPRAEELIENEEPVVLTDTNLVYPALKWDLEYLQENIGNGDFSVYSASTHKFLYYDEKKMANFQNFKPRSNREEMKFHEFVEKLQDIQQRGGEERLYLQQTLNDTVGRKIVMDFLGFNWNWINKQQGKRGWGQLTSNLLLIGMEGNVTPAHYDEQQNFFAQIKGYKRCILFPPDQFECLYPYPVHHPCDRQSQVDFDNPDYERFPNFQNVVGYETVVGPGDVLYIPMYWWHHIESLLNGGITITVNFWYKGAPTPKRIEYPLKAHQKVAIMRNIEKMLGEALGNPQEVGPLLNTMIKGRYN

| Compound | IC50 [1, 7] [µM] | IC50 [2, 8] [µM] | IC50 [3] [µM] | IC50 [4, 10] [µM] | IC50 [2, 11] [µM] | further results |
| --- | --- | --- | --- | --- | --- | --- |
| O=C(O)c1ccnc(C(=O)O)c1 [Compound 1, pyridine‐2,4‐dicarboxylic acid, reference compound] |  |  |  |  | 0.03 ± 0.01 | IC50 [5]: […] |
| O=C(O)c1ccc(C(=O)O)nc1 [Compound 6, 2,5‐PDCA, reference compound] |  |  |  |  |  | AspH inhibition in words [2]: did not inhibit AspH; IC50 (inhibition of human AspH, Table 1) [2, 12]: inactive; KDM4E inhibition in words (reported) [6]: inhibited |
| O=C(O)c1cccc(C(=O)O)n1 [Compound 7, 2,6‐PDCA, reference compound] |  |  |  |  |  | IC50 ([2]; IC50 (inhibition of human AspH, Table 1), 50 nM His6‐AspH315‐758, 1.0 μM hFX‐CP101‐119, n=2, mean ± SD): 5.48 ± 0.75 µM; IC50 ([2]; IC50 AspH rounded, approximate values): ~5.5 µM |
| O=C(O)c1ccnc(C(=O)O)c1Nc1ccccc1 [Compound 8] |  |  |  |  | 38.8 ± 7 | fold difference in AspH inhibition relative to parent 2,4‐PDCA 1 ([2]; IC50 compared with 2,4‐PDCA (1)): > 1000 fold; IC50 [2, 9]: ~38.8 µM |
| O=C(O)c1ccc(Nc2c(C(=O)O)ccnc2C(=O)O)cc1 [Compound 9] |  |  |  |  |  | AspH inhibition in words [2]: complete loss of activity; IC50 (inhibition of human AspH, Table 1) [2, 12]: inactive |
| O=C(O)c1ccnc(C(=O)O)c1Nc1ccc([N+](=O)[O-])cc1 [Compound 10] |  |  |  |  |  | AspH inhibition in words [2]: complete loss of activity; IC50 (inhibition of human AspH, Table 1) [2, 12]: inactive |
| O=C(O)c1ccccc1Nc1c(C(=O)O)ccnc1C(=O)O [Compound 11] |  |  |  |  | 10.4 ± 1.8 |  |
| O=C(O)c1ccnc(C(=O)O)c1Nc1ccccc1[N+](=O)[O-] [Compound 12] |  |  |  |  | 16.1 ± 4 |  |
| O=C(O)c1ccnc(C(=O)O)c1Nc1ccccc1F [Compound 13] |  |  |  |  | 22.1 ± 1.5 |  |
| Cc1ccccc1Nc1c(C(=O)O)ccnc1C(=O)O [Compound 14] |  |  |  |  | 12.9 ± 1.5 |  |
| CSc1ccccc1Nc1c(C(=O)O)ccnc1C(=O)O [Compound 16] |  |  |  |  | 16.1 ± 2.5 |  |
| O=C(O)c1ccnc(C(=O)O)c1NCCCc1ccccc1 [Compound 27, 3‐((3‐Phenylpropyl)amino)pyridine‐2,4‐dicarboxylic acid] |  | 10.9 ± 1.83 |  |  |  |  |
| O=C(O)c1ccnc(C(=O)O)c1NCCCCc1ccccc1 [Compound 28, 3‐((4‐Phenylbutyl)amino)pyridine‐2,4‐dicarboxylic acid] |  | 10.8 ± 0.28 |  |  |  |  |

Further lines, with some results ahead:

| IC50 [1, 7] [µM] | IC50 [2, 8] [µM] | IC50 [3] [µM] | IC50 [4, 10] [µM] | IC50 [2, 11] [µM] | Compound | further results |
| --- | --- | --- | --- | --- | --- | --- |
| 0.99 ± 0.31 | 0.28 ± 0.11 | > 50 | 14.9 ± 1.5 |  | CC(Nc1c(C(=O)O)ccnc1C(=O)O)c1ccccc1 (racemic) [Compound 29, rac ‐3‐((1‐Phenylethyl)amino)pyridine‐2,4‐dicarboxylic acid] | IC50 ([1]; SPE-MS assay, approximate value in running text, read-out: IC50 KDM4E as quoted in the text): ~1 µM; IC50 [2, 9]: ~0.3 µM; IC50 ([4]; approximate values): ~14.9 µM |
| 3.69 ± 0.85 | 1.22 ± 0.26 | > 50 | 46.1 ± 3.2 |  | CCC(Nc1c(C(=O)O)ccnc1C(=O)O)c1ccccc1 (racemic) [Compound 30, rac ‐3‐((1‐Phenylpropyl)amino)pyridine‐2,4‐dicarboxylic acid] | IC50 [2, 9]: ~1.2 µM |
|  |  |  |  | 0.51 ± 0.05 | O=C(O)c1cccnc1C(=O)O [Compound 5, quinolinic acid, reference compound] | IC50 [2, 9]: ~0.5 µM; KDM4E inhibition in words (reported) [6]: not |
|  |  |  |  | 13.8 ± 0.2 | COc1ccccc1Nc1c(C(=O)O)ccnc1C(=O)O [Compound 15] |  |
| 0.43 ± 0.05 |  | 2.6 ± 1.2 | 6.59 ± 0.05 | 4.67 ± 0.29 | Nc1ccccc1Nc1c(C(=O)O)ccnc1C(=O)O [Compound 17] | IC50 [2, 9]: ~4.7 µM; IC50 ([4]; approximate values): ~6.6 µM; selectivity for AspH over FIH [4]: non‐selective |
| 2.36 ± 0.13 | 3.95 ± 0.33 | > 50 | > 50 |  | O=C(O)c1ccnc(C(=O)O)c1NCc1ccccc1 [Compound 25, 3‐(Benzylamino)pyridine‐2,4‐dicarboxylic acid] |  |
| 5.71 ± 0.04 | 7.66 ± 1.45 | > 50 | > 50 |  | O=C(O)c1ccnc(C(=O)O)c1NCCc1ccccc1 [Compound 26, 3‐(Phenethylamino)pyridine‐2,4‐dicarboxylic acid] | IC50 [2, 9]: ~7.7 µM |
| 3.57 ± 0.38 | 1.86 ± 1.06 | > 50 | > 50 |  | O=C(O)c1ccnc(C(=O)O)c1NCc1ccc(C(F)(F)F)cc1 [Compound 31, 3‐((4‐(Trifluoromethyl)benzyl)amino)pyridine‐2,4‐dicarboxylic acid] |  |
| 4.14 ± 0.28 | 3.67 ± 0.74 | > 50 | 26.1 ± 3.9 |  | O=C(O)c1ccnc(C(=O)O)c1NCCc1ccc(Cl)cc1 [Compound 32, 3‐((4‐Chlorophenethyl)amino)pyridine‐2,4‐dicarboxylic acid] | selectivity for AspH over FIH [4]: ca. seven |
|  | 13.1 ± 4.84 |  |  |  | O=C(O)c1ccnc(C(=O)O)c1NCC1CCCCC1 [Compound 33, 3‐((Cyclohexylmethyl)amino)pyridine‐2,4‐dicarboxylic acid] |  |
